From PMC2874645 (Aquatic toxicology (Amsterdam, Netherlands), 2010)

Biological target: T1, farnesoid X receptor alpha (Fxrα) (Oryzias latipes, UniProt H2M6M7)
T1 sequence (H2M6M7 201-485): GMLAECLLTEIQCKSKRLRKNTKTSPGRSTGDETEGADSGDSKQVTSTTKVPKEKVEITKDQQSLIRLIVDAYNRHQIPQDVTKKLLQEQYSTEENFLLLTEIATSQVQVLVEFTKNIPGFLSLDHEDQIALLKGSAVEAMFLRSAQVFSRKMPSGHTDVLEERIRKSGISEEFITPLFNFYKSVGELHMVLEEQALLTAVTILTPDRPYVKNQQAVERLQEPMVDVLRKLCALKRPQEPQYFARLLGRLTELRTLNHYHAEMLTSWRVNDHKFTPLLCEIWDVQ
T1 sequence (Q9UBK2 1-798 partner): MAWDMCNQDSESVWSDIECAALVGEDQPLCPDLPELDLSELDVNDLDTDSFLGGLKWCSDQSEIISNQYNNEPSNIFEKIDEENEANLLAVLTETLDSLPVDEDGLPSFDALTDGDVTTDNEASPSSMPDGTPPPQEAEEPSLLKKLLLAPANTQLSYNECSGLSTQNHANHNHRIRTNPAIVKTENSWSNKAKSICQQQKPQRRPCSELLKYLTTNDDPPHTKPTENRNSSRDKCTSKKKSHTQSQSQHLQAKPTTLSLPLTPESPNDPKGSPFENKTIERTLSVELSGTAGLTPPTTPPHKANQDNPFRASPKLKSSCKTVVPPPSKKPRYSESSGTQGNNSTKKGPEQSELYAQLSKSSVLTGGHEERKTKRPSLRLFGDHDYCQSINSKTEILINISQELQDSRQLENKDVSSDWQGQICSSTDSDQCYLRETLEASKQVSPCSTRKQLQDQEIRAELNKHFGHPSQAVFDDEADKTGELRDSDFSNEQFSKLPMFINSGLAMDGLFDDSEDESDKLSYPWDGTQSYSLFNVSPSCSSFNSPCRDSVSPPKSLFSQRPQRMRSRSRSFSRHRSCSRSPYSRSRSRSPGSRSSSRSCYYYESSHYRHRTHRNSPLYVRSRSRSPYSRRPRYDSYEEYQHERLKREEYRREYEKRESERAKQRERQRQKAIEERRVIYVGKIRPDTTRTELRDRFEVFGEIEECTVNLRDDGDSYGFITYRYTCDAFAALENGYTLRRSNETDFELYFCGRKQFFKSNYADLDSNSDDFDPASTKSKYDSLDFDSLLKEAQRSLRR
Assay: Gal4-LBD luciferase reporter in PLHC-1 cells at […]
Conditions: read-out: Gal4-LBD luciferase reporter in PLHC-1 cells at 100 μM

SMILES	fold induction at 100 µM
C[C@H](CCC(=O)O)[C@H]1CC[C@H]2[C@@H]3CC[C@@H]4C[C@H](O)CC[C@]4(C)[C@H]3CC[C@]12C [lithocholic acid]	10.7
C[C@H](CCC(=O)NCCS(=O)(=O)O)[C@H]1CC[C@H]2[C@@H]3CC[C@@H]4C[C@H](O)CC[C@]4(C)[C@H]3CC[C@]12C [taurine conjugate of LCA]	10.5
